Measurements published in US20060079550A1, “Amino acid derivatives useful for the treatment of alzheimer's disease” (priority 2001, published 2006).

Biological target: aspartyl proteases, in particular, beta-secretase
Assay: Ki of the compounds listed in Tables 1 and 2 (no method described)
Type: biochemical
Details: Table 1, compounds of formula Ia, W is -(CH2)n-

Ki [nM]	SMILES
4490	Nc1ccc(S(=O)(=O)N[C@@H](CCCCNC(=O)OCC2c3ccccc3-c3ccccc32)C(=O)O)cc1 [Compound No. 106, Nα-(4-aminobenzenesulfonyl)-Nε-(9-fluorenylmethoxycarbonyl)-L-lysine]
> 300	CC(C)CN([C@@H](CCCCNC(=O)C=Cc1ccc2c(c1)OCO2)C(=O)O)S(=O)(=O)c1ccc([N+](=O)[O-])cc1 [Compound No. 163, Nα-isobutyl-Nα-(4-nitrobenzenesulfonyl)-Nε-(3,4-methylenedioxycinnamoyl)-L-lysine]
23800	Nc1ccc(S(=O)(=O)NCCC[C@H](NC(=O)OCC2c3ccccc3-c3ccccc32)C(=O)O)cc1 [Compound No. 69, Nδ-(4-aminobenzenesulfonyl)-Nα-(9-fluorenylmethoxycarbonyl)-L-ornithine]
23000	NC(=O)C(CCCCNS(=O)(=O)c1ccc(Br)cc1)NC(=O)OCC1c2ccccc2-c2ccccc21 [Compound No. 20, (2R,2S)-(9-fluorenylmethoxycarbonylamino)-6-(4-bromobenzenesulfonylamino)-1-hexanamide]
> 300	CC(C)CN([C@@H](CCCCNS(=O)(=O)Cc1ccccc1)C(=O)O)S(=O)(=O)c1ccc([N+](=O)[O-])cc1 [Compound No. 115, Nα-isobutyl-Nα-(4-nitrobenzenesulfonyl)-Nε-benzylsulfonyl-L-lysine]
33000	CC1(C)[C@@H]2CC[C@@]1(CS(=O)(=O)NCCCC[C@H](NC(=O)OCC1c3ccccc3-c3ccccc31)C(=O)O)C(=O)C2 [Compound No. 35, Nε-(1S)-(10-camphorsulfonyl)-Nα-(9-fluorenylmethoxycarbonyl)-L-lysine]
> 1250	CC(C)CN([C@@H](CCCCNC(=O)OCc1ccccc1)C(=O)OCc1ccccc1)S(=O)(=O)c1ccc([N+](=O)[O-])cc1 [Compound No. 78, Nα-isobutyl-Nα-(4-nitrobenzenesulfonyl)-Nε-benzyloxycarbonyl-L-lysine Benzyl Ester]
> 1250	Cc1ccc(S(=O)(=O)N(CC(C)C)[C@@H](CCCCNC(=O)c2c[nH]c3ccccc23)C(=O)O)cc1 [compound 87]
> 300	CC(C)CN([C@@H](CCCCNC(=O)/C=C/c1cccnc1)C(=O)O)S(=O)(=O)c1ccc([N+](=O)[O-])cc1 [Compound No. 164, Nα-isobutyl-Nα-(4-nitrobenzenesulfonyl)-Nε-(trans-3-(3-pyridyl)acryloyl)-L-lysine]
> 300	CC(C)CN([C@@H](CCCCNC(=O)CCc1ccccc1N)C(=O)O)S(=O)(=O)c1ccc(N)cc1 [Compound No. 122, Nα-isobutyl-Nα-(4-aminobenzenesulfonyl)-Nε-(2-aminodihydrocinnamoyl)-L-lysine]
26200	O=C(N[C@@H](CCCNS(=O)(=O)c1ccc([N+](=O)[O-])cc1)C(=O)O)OCC1c2ccccc2-c2ccccc21 [Compound No. 62, Nδ-(4-nitrobenzenesulfonyl)-Nα-(9-fluorenylmethoxycarbonyl)-L-ornithine]
> 100	CC(C)CN(C(CCCCNC(=O)OCc1ccccc1)C(=O)O)S(=O)(=O)c1ccc(I)cc1 (racemic) [Compound No. 48, Nα-isobutyl-Nα-(4-iodobenzenesulfonyl)-Nε-benzyloxycarbonyl-DL-lysine]
> 100	CC(C)CN(C(=O)c1ccccc1)[C@@H](CCCCNC(=O)OCC1c2ccccc2-c2ccccc21)C(=O)O [Compound No. 46, Nα-isobutyl-Nα-benzoyl-Nε-(9-fluorenylmethoxycarbonyl)-Llysine]
> 50000	Cc1cc(C)c(S(=O)(=O)NCCCC[C@H](NC(=O)OCC2c3ccccc3-c3ccccc32)C(=O)O)c(C)c1 [Compound No. 27, Nε-(2,4,6-trimethylbenzenesulfonyl)-Nα-(9-fluorenylmethoxycarbonyl)-L-lysine]
6500	O=C(N[C@@H](CCCCNS(=O)(=O)c1ccc(F)cc1)C(=O)O)OCC1c2ccccc2-c2ccccc21 [Compound No. 55, Nε-(4-fluorobenzenesulfonyl)-Nα-(9-fluorenylmethoxycarbonyl)-L-lysine]
> 50000	CC(C)CN(CCC[C@H](NC(=O)OCC1c2ccccc2-c2ccccc21)C(=O)O)S(=O)(=O)c1ccc(Br)cc1 [Compound No. 41, Nα-(9-fluorenylmethoxycarbonyl)-Nδ-isobutyl-Nδ-(4-bromobenzenesulfonyl)-L-ornithine]
> 6250	O=C(N[C@@H](CCCCNS(=O)(=O)c1cc(Cl)ccc1Cl)C(=O)O)OCC1c2ccccc2-c2ccccc21 [Compound No. 54, Nε-(2,5-dichlorobenzenesulfonyl)-Nα-(9-fluorenylmethoxycarbonyl)-L-lysine]
3300	O=C(NCCCC[C@H](NS(=O)(=O)c1ccc([N+](=O)[O-])cc1)C(=O)O)OCC1c2ccccc2-c2ccccc21 [Compound No. 103, Nα-(4-nitrobenzenesulfonyl)-Nε-(9-fluorenylmethoxycarbonyl)-L-lysine]
89.7	Cc1ccc(S(=O)(=O)N(CC(C)C)[C@@H](CCCCNC(=O)CC2c3ccccc3-c3ccccc32)C(=O)O)cc1 [compound 84]
20000	O=C(N[C@@H](CCCCNS(=O)(=O)Cc1ccccc1)C(=O)O)OCC1c2ccccc2-c2ccccc21 [Compound No. 33, Nε-phenylmethylsulfonyl-Nα-(9-fluorenylmethoxycarbonyl)-L-lysine]
> 34900	O=C(O)[C@H](CCCN(Cc1ccc(F)cc1)S(=O)(=O)c1ccc(Br)cc1)NS(=O)(=O)c1ccc(Br)cc1 [Compound No. 59, Nα,Nδ-di-(4-bromobenzenesulfonyl)-Nδ-(4-fluorobenzyl)-L-ornithine]
> 50000	O=C(N[C@@H](CCCCNS(=O)(=O)c1ccc(Br)cc1)C(=O)O)c1ccccc1 [Compound No. 65, Nα-benzoyl-Nε-(4-bromobenzenesulfonyl)-L-lysine]

SMILES	Ki [nM]
Cc1ccc(S(=O)(=O)N(CC(C)C)[C@@H](CCCCNC(=O)C2c3ccccc3Oc3ccccc32)C(=O)O)cc1 [compound 85]	14.5
CC(C)CN([C@@H](CCCCNC(=O)CCc1ccc2c(c1)OCO2)C(=O)O)S(=O)(=O)c1ccc(N)cc1 [Compound No. 155, Nα-isobutyl-Nα-(4-aminobenzenesulfonyl)-Nε-(3,4-methylenedioxydihydrocinnamoyl)-L-lysine]	15.7
Cc1ccc(S(=O)(=O)N(CC(C)C)[C@@H](CO)CCCCNC(=O)OCC2c3ccccc3-c3ccccc32)cc1 [Compound No. 124, (2R)-N-isobutyl-N-(4-methylbenzenesulfonylamino)-6-(9-fluorenylmethoxycarboxylamino)-1-hexanol]	208
CC(C)CN([C@@H](CCCCNC(=O)COc1ccccc1)C(=O)O)S(=O)(=O)c1ccc([N+](=O)[O-])cc1 [Compound No. 160, Nα-isobutyl-Nα-(4-nitrobenzenesulfonyl)-Nε-phenoxyacetyl-L-lysine]	24.5
CC(C)CN([C@@H](CCCCNC(=O)CCc1c[nH]c2ccccc12)C(=O)O)S(=O)(=O)c1ccc(N)cc1 [Compound No. 98, Nα-isobutyl-Nα-(4-aminobenzenesulfonyl)-Nε-(3-indolepropionyl)-L-lysine]	10.1
CC(C)CN(C(CCCCNC(=O)OCC1c2ccccc2-c2ccccc21)C(=O)O)S(=O)(=O)c1ccc(F)cc1 (racemic) [Compound No. 3, Nα-isobutyl-Nα-(4-fluorobenzenesulfonyl)-Nε-(9-fluorenylmethoxycarbonyl)-DL-lysine]	17.4
